In US4921850A, “3-propenylcephem derivative” (Eisai Co., Ltd., priority 1986, dated 1990):
In brackets after ≈: the same amount, converted by molar mass.

Legend:
Test in all cases: Anti-bacterial activity (MIC), agar dilution
Type in all cases: cell-based
Staph. aureus 209-P = conditions: Staphylococcus aureus, 209P, 18 h, Staph. aureus 209-P; agar dilution, about 10^6 CFU/ml, 18 hours, 37° C.; read-out: MIC
Summary of the method: (§1)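 MIC values (μg/ml) come from agar dilution: strains grown overnight in Mueller-Hinton broth, diluted to roughly 10^6 CFU/ml, spotted on Mueller-Hinton agar containing twofold serial antibiotic dilutions, and read after 18 hours at 37° C.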

Pseud. aeruginosa EP-01 = conditions: Pseudomonas aeruginosa, EP01, 18 h, Pseud. aeruginosa EP-01; agar dilution, about 10^6 CFU/ml, 18 hours, 37° C.; read-out: MIC
Summary of the method: as §1

Ser. marcescens ES-75 = conditions: Serratia marcescens, ES75, 18 h, Ser. marcescens ES-75; agar dilution, about 10^6 CFU/ml, 18 hours, 37° C.; read-out: MIC
Summary of the method: as §1

[1] = test system: Morganella morganii EP-14; conditions: Morganella morganii, EP14, 18 h, about 10^6 CFU/ml, 37° C., read-out: MIC
Summary of the method: as §1

Kleb. pneumoniae EK-6 = conditions: Klebsiella pneumoniae, EK6, 18 h, Kleb. pneumoniae EK-6; agar dilution, about 10^6 CFU/ml, 18 hours, 37° C.; read-out: MIC
Summary of the method: as §1

Escher. coli NIHJ = conditions: Escherichia coli, 18 h, Escher. coli NIHJ; agar dilution, about 10^6 CFU/ml, 18 hours, 37° C.; read-out: MIC
Summary of the method: as §1

SMILES	MIC (Staph. aureus 209-P) [µg/mL]	MIC (Pseud. aeruginosa EP-01) [µg/mL]	MIC (Ser. marcescens ES-75) [µg/mL]	MIC [1] [µg/mL]	MIC (Kleb. pneumoniae EK-6) [µg/mL]	MIC (Escher. coli NIHJ) [µg/mL]
C[N+](C)(C/C=C/C1=C(C(=O)[O-])N2C(=O)[C@@H](NC(=O)/C(=N\OCF)c3nsc(N)n3)[C@H]2SC1)Cc1cnc[nH]1 [Example 106]	0.4 (≈ 0.707 µM)	3.13 (≈ 5.53 µM)	0.1 (≈ 0.177 µM)	0.05 (≈ 0.0884 µM)	0.05 (≈ 0.0884 µM)	≤ 0.025
Nc1nc(/C(=N/OCF)C(=O)N[C@@H]2C(=O)N3C(C(=O)[O-])=C(/C=C/C[n+]4ccc(C(=O)N5CCOCC5)cc4)CS[C@H]23)ns1 [Example 108]	0.4 (≈ 0.632 µM)	3.13 (≈ 4.95 µM)	0.1 (≈ 0.158 µM)	0.05 (≈ 0.079 µM)	≤ 0.025	0.05 (≈ 0.079 µM)
Nc1nc(/C(=N/OC(F)F)C(=O)N[C@@H]2C(=O)N3C(C(=O)[O-])=C(/C=C/C[n+]4ccc(C(=O)O)cc4)CS[C@H]23)ns1 [Example 115]	0.8 (≈ 1.38 µM)	3.13 (≈ 5.38 µM)	0.05 (≈ 0.086 µM)	≤ 0.025	≤ 0.025	≤ 0.025
Nc1nc(/C(=N/OC(F)F)C(=O)N[C@@H]2C(=O)N3C(C(=O)[O-])=C(/C=C/C[N+](CCO)(CCO)CCO)CS[C@H]23)ns1 [Example 117]	0.4 (≈ 0.658 µM)	1.56 (≈ 2.57 µM)	0.2 (≈ 0.329 µM)	≤ 0.025	0.05 (≈ 0.0823 µM)	0.05 (≈ 0.0823 µM)
C[N+](C)(C/C=C/C1=C(C(=O)[O-])N2C(=O)[C@@H](NC(=O)/C(=N\OCF)c3nsc(N)n3)[C@H]2SC1)CC(N)=O [Example 118, 7β-[2-(5-Amino-1,2,4-thiadiazol-3-yl)-(Z)-2-fluoromethoxyiminoacetamido]-3-[(E)-3-(carbamoylmethyldimethylammonio)-1-propen-1-yl]-3-cephem-4-carboxylate]	0.2 (≈ 0.369 µM)	0.4 (≈ 0.737 µM)	0.1 (≈ 0.184 µM)	≤ 0.025	≤ 0.025	≤ 0.025
C[N+]1(C/C=C/C2=C(C(=O)[O-])N3C(=O)[C@@H](NC(=O)/C(=N\OCF)c4nsc(N)n4)[C@H]3SC2)CCN(S(N)(=O)=O)CC1 [Example 119, 7β-[2-(5-Amino-1,2,4-thiadiazol-3-yl)-(Z)-2-fluoromethoxyiminoacetamido]-3-[(E)-3-(1-methyl-4-sulfamoyl-1-piperazinio)-1-propen-1-yl]-3-cephem-4-carboxylate]	0.2 (≈ 0.323 µM)	0.8 (≈ 1.29 µM)	0.05 (≈ 0.0807 µM)	≤ 0.025	≤ 0.025	≤ 0.025
C[N+](C)(C/C=C/C1=C(C(=O)[O-])N2C(=O)[C@@H](NC(=O)/C(=N\OCF)c3nsc(N)n3)[C@H]2SC1)Cc1nnco1 [Example 120, 7β-[2-(5-Amino-1,2,4-thiadiazol-3-yl)-(Z)-2-fluoromethoxyiminoacetamido]-3-[(E)-3-[(1,3,4-oxadiazol-2-yl)methyldimethylammonio]-1-propen-1-yl]-3-cephem-4-carboxylate]	0.2 (≈ 0.352 µM)	0.8 (≈ 1.41 µM)	0.05 (≈ 0.0881 µM)	≤ 0.025	≤ 0.025	≤ 0.025
C[N+]1(C/C=C/C2=C(C(=O)[O-])N3C(=O)[C@@H](NC(=O)/C(=N\OCF)c4nsc(N)n4)[C@H]3SC2)CCN(C=N)CC1.Cl [Example 123, 7β-[2-(5-Amino-1,2,4-thiadiazol-3-yl)-(Z)-2-fluoromethoxyiminoacetamido]-3-[(E)-3-(1-methyl-4-formimidoyl-1-piperazinio)-1-propen-1-yl]-3-cephem-4-carboxylate hydrochloride]	0.4	1.56	0.2	0.05	0.05	0.05
C[N+]1(C/C=C/C2=C(C(=O)[O-])N3C(=O)[C@@H](NC(=O)/C(=N\OCF)c4nsc(N)n4)[C@H]3SC2)CCNCC1 [Example 124, 7β[2-(5-Amino-1,2,4-thiadiazol-3-yl)-(Z)-2-fluoromethoxyiminoacetamido]-3-[(E)-3-(1-methyl-1-piperazinio)-1-propen-1-yl]-3-cephem-4-carboxylate]	0.2 (≈ 0.37 µM)	0.8 (≈ 1.48 µM)	0.1 (≈ 0.185 µM)	0.05 (≈ 0.0925 µM)	≤ 0.025	0.05 (≈ 0.0925 µM)
Nc1nc(/C(=N/OCF)C(=O)N[C@@H]2C(=O)N3C(C(=O)[O-])=C(/C=C/C[N+]45CCN(CC4)CC5)CS[C@H]23)ns1 [Example 129, 7β-[2-(5-Amino-1,2,4-thiadiazol-3-yl)-(Z)-2-fluoromethoxyiminoacetamido]-3-[(E)-3-(1,4-diazabicyclo[2,2,2]octan-1-io)-1-propen-1-yl]-3-cephem-4-carboxylate]	0.2 (≈ 0.362 µM)	0.8 (≈ 1.45 µM)	0.05 (≈ 0.0905 µM)	≤ 0.025	≤ 0.025	≤ 0.025
Nc1nc(/C(=N/OCF)C(=O)N[C@@H]2C(=O)N3C(C(=O)[O-])=C(/C=C/C[N+](CCO)(CCO)CCO)CS[C@H]23)ns1 [Example 143, 7β-[2-(5-Amino-1,2,4-thiadiazol-3-yl)-(Z)-2 fluoromethoxyiminoacetamido]-3-[(E)-3-[tris(2-hydroxyethyl)ammonio]-1-propen-1-yl]-3-cephem-4-carboxylate]	0.2 (≈ 0.339 µM)	0.8 (≈ 1.36 µM)	0.1 (≈ 0.17 µM)	≤ 0.025	≤ 0.025	0.05 (≈ 0.0848 µM)
C[N+](C/C=C/C1=C(C(=O)[O-])N2C(=O)[C@@H](NC(=O)/C(=N\OCF)c3nsc(N)n3)[C@H]2SC1)(CCO)CCO [Example 144, 7β-[2-(5-Amino-1,2,4-thiadiazol-3-yl)-(Z)-2-fluoromethoxyiminoacetamido]-3-[(E)-3-[bis(2-hydroxyethyl)methylammonio]-1-propen-1-yl]-3-cephem-4-carboxylate]	0.2 (≈ 0.357 µM)	0.8 (≈ 1.43 µM)	0.1 (≈ 0.179 µM)	≤ 0.025	0.05 (≈ 0.0893 µM)	≤ 0.025
N#CCO/N=C(\C(=O)N[C@@H]1C(=O)N2C(C(=O)[O-])=C(/C=C/C[N+](CCO)(CCO)CCO)CS[C@H]12)c1nsc(N)n1 [Example 147]	0.2 (≈ 0.335 µM)	1.56 (≈ 2.61 µM)	0.2 (≈ 0.335 µM)	0.05 (≈ 0.0838 µM)	0.05 (≈ 0.0838 µM)	0.4 (≈ 0.67 µM)

Further molecules by falling MIC (Staph. aureus 209-P), results first:

MIC (Staph. aureus 209-P) [µg/mL]	MIC (Pseud. aeruginosa EP-01) [µg/mL]	MIC (Ser. marcescens ES-75) [µg/mL]	MIC [1] [µg/mL]	MIC (Kleb. pneumoniae EK-6) [µg/mL]	MIC (Escher. coli NIHJ) [µg/mL]	SMILES
0.2 (≈ 0.354 µM)	1.56 (≈ 2.76 µM)	0.05 (≈ 0.0884 µM)	≤ 0.025	≤ 0.025	≤ 0.025	C[N+](C)(C/C=C/C1=C(C(=O)[O-])N2C(=O)[C@@H](NC(=O)/C(=N\OCF)c3nsc(N)n3)[C@H]2SC1)Cc1ccn[nH]1 [Example 102]
0.2 (≈ 0.357 µM)	1.56 (≈ 2.78 µM)	0.05 (≈ 0.0892 µM)	≤ 0.025	≤ 0.025	0.05 (≈ 0.0892 µM)	Nc1nc(/C(=N/OCF)C(=O)N[C@@H]2C(=O)N3C(C(=O)[O-])=C(/C=C/C[N+](N)(CCO)CCO)CS[C@H]23)ns1 [Example 107]
0.2 (≈ 0.357 µM)	0.8 (≈ 1.43 µM)	0.05 (≈ 0.0892 µM)	≤ 0.025	≤ 0.025	0.05 (≈ 0.0892 µM)	C[N+](C)(C/C=C/C1=C(C(=O)[O-])N2C(=O)[C@@H](NC(=O)/C(=N\OC(F)F)c3nsc(N)n3)[C@H]2SC1)CC(N)=O [Example 114, 7β-[2-(5-Amino-1,2,4-thiadiazol-3-yl)-(Z)-2-difluoromethoxyiminoacetamido]-3-[(E)-3-(dimethylcarbamoylmethylammonio)-1-propen-1-yl]-3-cephem-4-carboxylate]
0.2 (≈ 0.351 µM)	1.56 (≈ 2.73 µM)	≤ 0.025	≤ 0.025	≤ 0.025	≤ 0.025	Nc1nc(/C(=N/OC(F)F)C(=O)N[C@@H]2C(=O)N3C(C(=O)[O-])=C(/C=C/C[N+]45CCN(CC4)CC5)CS[C@H]23)ns1 [Example 116]
0.1 (≈ 0.187 µM)	3.13 (≈ 5.86 µM)	≤ 0.025	≤ 0.025	≤ 0.025	≤ 0.025	Nc1ccc[n+](C/C=C/C2=C(C(=O)[O-])N3C(=O)[C@@H](NC(=O)/C(=N\OCF)c4nsc(N)n4)[C@H]3SC2)c1 [Example 103]
